# Reference: patent publication US20260327211A1, “MODULATORS OF A POTASSIUM CHANNEL AND OF TRPV1 CHANNEL AND USES THEREOF” (Bsense Bio Therapeutics Ltd., priority 2023, published 2026)
# Where two headings read alike, the source gives them in different places.
# How the values were obtained:
# [1] = target: T1, hKv7.2/3 (Homo sapiens, UniProt O43525+O43526); experiment: Kv7.2/7.3 HCS, FLIPR potassium (thallium) assay, CHO/hKv7.2/3; type: cell-based; details: for EC50: Table 1, read-out: Kv7.2/7.3 IC50
# T1 construct: host or cells: CHO
# Description: (§1) Cell culture: Chinese hamster ovary (CHO) cell-line cells with a constitutive expression of human Kv7.2/3 channels (B'SYS GmbH, Switzerland) were cultured in F-12 nutrient mixture (Biological Industries) supplemented with 10% fetal bovine serum (Biological Industries) and 1% penicillin-streptomycin (Biological Industries) in a humidified 5% CO2 incubator at 37° C. To maintain the stability of human Kv7.2/7.3 expression antibiotic selection was added (Puromycin 5 μg/ml).
# High content screen (HCS) using FLIPR Potassium Assay Kit: A FLIPR Potassium Assay Kit (R8222 FLIPR Potassium Assay Explorer Kits, Molecular Devices) was used with the CHO/hKv7.2/3 cell line to screen molecules against the hKv7.2/7.3 ion channel target. The assay exploits the permeability of thallium ions (Tl+) through potassium (K+) channels. In this assay, Tl+ indicator dye is used to produce a bright fluorescent signal upon the binding to Tl+ conducted through the potassium channels. The intensity of the Tl+ signal is proportional to the number of potassium channels in the open state. Therefore, it provides a functional indication of the potassium channel activity. To activate the voltage-gate potassium channels, the cells were stimulated with a mixture of K+ and Tl+ to depolarize the cell membrane. The fluorescence increase in the assay represents the influx of Tl+ into the cell specifically through the potassium channel, providing a functional read-out of hKv7.2/3 activity using a fluorescent plate reader coupled with injectors used to activate the channels.
# According to optimization process to achieve uniform and consistent screening conditions the following protocol was established: Cells were seeded in 384-well, black-walled, clear-bottomed Greiner #781091, at a density of 5000 cells per well 24 hours before the assay conductance and incubated overnight in their normal growth medium. On the experiment day the medium was replaced with HBSS, HEPES, and the test compound/vehicle (0.2% DMSO). Dye solution (prepared according to the manufacturer) was added to the plates, which were incubated for 1.5 h light-protected in room temperature. Tecan Spark reader plate injectors were primed with Tl+(1 mM Tl2SO4) or Tl++K+(1 mM Tl2SO4; 5 mM K2SO4) for channel activation and data correction. […] To calculate EC50 values, the data was fitted to sigmoidal regression using Prism GraphPad. The fitting was constrained to a minimum of 1 and a maximal response of about 3.6 unless a different maximal response could be clearly identified.
# [2] = target: T2, hTRPV1 (Homo sapiens, UniProt Q8NER1); experiment: TRPV1 HCS, Fluo-8 calcium flux, capsaicin activation, CHO cells expressing hTRPV1; type: cell-based
# T2 construct: CDS of NM_080704.4, inserted into the multiple cloning site of pcDNA3.1(+); host or cells: CHO/hKv7.2/3
# Description: as §1, with “with” for “with a”, “hTRPV1” for “Kv7.2/3”, “stable expression” for “stability”, “hTRPV1,” for “human Kv7.2/7.3 expression”, “selection (G418 500 μg/ml)” for “selection”, “applied.” for “added (Puromycin 5 μg/ml).”
# High content screen (HCS) using Fluo-8 No Wash Calcium flux Assay Kit: Fluo-8 No Wash Calcium Assay Kit (Abcam, ab112129) was used with CHO stably or transiently expressing TRPV1 to screen compounds against the hTRPV1 ion channel target. The cells were pre-loaded with Fluo-8AM which is membrane permeable. The AM groups of the Fluo-8AM were then being cleaved by intracellular esterase, trapping the Fluo8 in the cell. […] The relative fluorescence signal was calculated following background subtraction, comparing the fluorescence at each time point to its maximal level measured following Ionomycin application in the end.
# According to optimization process to achieve uniform and consistent screening condition of molecules the following protocol was established: Cells were seeded in 384-well, black-walled, clear-bottomed, at a density of 5,000 cells per well 24 h before the assay conductance and incubated overnight in their normal growth medium. On the experiment day the medium was replaced in each well with HBSS, HEPES, and compound/vehicle (0.2% DMSO). Dye solution (prepared according to the manufacturer) was added to the wells and plates are incubated for 1.5 h light-protected in room temperature. The Tecan Spark plate reader injectors were then primed with capsaicin and Ionomycin for channel activation and data normalization, respectively. […] To calculate IC50 values, the data was fitted to sigmoidal regression line using Prism GraphPad. The fitting was constrained to a minimum of 0 and a maximal response of about 1 unless a different maximal response could be identified.
# [3] = Human liver microsome metabolic stability; type: in vitro ADME; details: human liver microsomes; for microsomal CLint at 1 µM: read-out: HLM Clint; for HLM Clint: 1 µM
# From the text: Liver microsomes which are subcellular particles derived from endoplasmic reticulum of hepatic cells were used for evaluating the tested compounds. These particles are rich in drug metabolizing enzymes, including the cytochrome p-450 family. Liver microsomes are a recommended test system for various in vitro drug metabolism and pharmacokinetics (DMPK) studies. CLint values lower than […] are considered suitable for drug development.
# Liver Microsome Metabolic Stability Assay (NADPH): The liver microsome stability assay was evaluated through pre-incubation with HLMs. A liver microsome mixture (pooled from multiple donors) at a concentration of 0.5 mg/mL, and the test compound at a concentration of 1 μM, were warmed in the presence of a NADPH regenerating system (about 1.0 mM) at 37° C. Positive controls, including testosterone (a CYP3A4 substrate), propafenone (a CYP2D6 substrate), and diclofenac (a CYP2C9) substrate, were concurrently incubated with the HLMs, in the presence of the NADPH regenerating system (1.0 mM). Samples were extracted during incubation at multiple intervals: 0, 5, 15, 30, 45 and 60 minutes. To terminate the reactions, the samples were promptly mixed with cooled acetonitrile that included an internal standard (IS). An additional compound was incubated with the HLMs in the absence of the NADPH regeneration system, from which a sample was taken at the 60-minute interval.
# The clearance of the test compound in the samples was subsequently analyzed by LC-MS/MS based on the peak area ratios of the analyte to the IS.
# The following equation was used to calculate the microsome clearance: […]
# Liver weight: 40 grams/kg, 30 grams/kg, 32 grams/kg, 20 grams/kg and 88 grams/kg, for rat, monkey, dog, human and mouse, respectively.
# [4] = target: hERG (Homo sapiens, UniProt Q12809); experiment: hERG HCS, FLIPR potassium assay, CHO/hERG; type: cell-based; set-up: host or cells: CHO; details: Table 1; for IC50: read-out: hERG IC50; for hERG IC50 (inhibition in parentheses): at highest concentration shown
# Description: as §1, with “hERG” for “Kv7.2/3”, “the hERG expression” for “the”, “the CHO cell line, antibiotics” for “human Kv7.2/7.3 expression antibiotic”, “selection (G418 […] and Hygromycin 500)” for “selection”, “applied.” for “added (Puromycin 5 μg/ml).”
# FLIPR Potassium Assay Kit: The FLIPR Potassium Assay Kit (R8222 FLIPR Potassium Assay Explorer Kits, Molecular Devices) was used with CHO/hERG cell line, for screening compounds against the hERG ion-channel off-target, as detailed hereinabove.
# According to optimization process, to achieve a uniform and consistent screening condition of molecules, the following protocol was established: Cells were seeded in 384-well, black-walled, clear-bottomed, at a density of 7,500 cells per well 24 hours before the assay conductance and incubated overnight in their normal growth medium. On the experiment day the medium was replaced with HBSS, HEPES, and the tested compound/vehicle (0.2% DMSO). Dye solution (prepared according to the manufacturer) was added to the wells and plates were incubated for 1.5 hour light-protected in room temperature. The Tecan Spark plate-reader injectors were primed with Tl+(1 mM Tl2SO4) or Tl++K+(1 mM Tl2SO4; 10 mM K2SO4) for channel activation and data correction. […]. To calculate IC50 values, the data was fitted to sigmoidal regression using Prism GraphPad.
# [5] = Kinetic solubility; type: physicochemical; details: Table 1; for solubility kinetic: hhbs buffer, aqueous buffer, read-out: Kinetic Sol.
# Description: Solubility measurements were performed prior to each in vitro assay to ensure accurate dose response and reproducibility. Briefly, each compound was dissolved to 60 mM in DMSO and calibration curve was performed from 1.5-200 μM using absorbance spectra analysis and determination of λmax. Calibration curve served as the readout for all following assays. The 60 mM stock solution was used to make a 120 μM target concentration of 0.2% DMSO in the appropriate buffer of the in vitro related assay (i.e. HHBS buffer). Solubilized compounds were vortex for 10 minutes followed by centrifugation for 15 minutes in 5000 RPM and the supernatant was recovered for absorbance spectra analysis between 200-400 nm.
# [6] = Log D, 1-octanol/buffer shake flask; type: physicochemical; details: pH 7.4
# Description: The Log D assay was a miniaturized 1-octanol/buffer shake flask method followed by LC/MS/MS analysis, as follows.
# The test compounds or control compounds Nadolol, Chlorpromazine Hydrochloride and Propranolol Hydrochloride were dissolved in 100% DMSO to obtain 10 mM solutions, which were transferred to 96-well polypropylene cluster tubes; 2 μL/well. 1-octanol saturated with 0.1 M phosphate buffer (149 μL/well) and 0.1 M phosphate buffer saturated with 1-octanol (149 μL/well) were added to the tubes, respectively, and each tube was vigorously mixed for 2 minutes and then shaked at a speed of 800 rpm at room temperature for 1 hour, followed by centrifugation at 4000 rpm for 5 minutes at room temperature. Thereafter, for the test compounds and the Chlorpromazine Hydrochloride and Propranolol Hydrochloride, the sample of the buffer layer was diluted by a factor of 50-fold and the sample of 1-octanol layer was diluted by a factor of 2000-fold with internal standard (IS) solution. For Nadolol, the sample of the buffer layer was diluted by a factor of 1000-fold and the sample of 1-octanol layer was diluted by a factor of 400-fold with internal standard (IS) solution. The samples were analyzed using a triple quadrupole mass spectrometer. Peak areas were corrected by dilution factors and embedded internal standard, and the ratio of the corrected peak areas was used to calculate the Log D value. The Log D value for each compound will be calculated by the following equation: […]
# [7] = cells expressing TRPV1, read-out: TRPV1 IC50
# [8] = 1-octanol/phosphate buffer, read-out: LogD
# T1 sequence (O43525 whole entry): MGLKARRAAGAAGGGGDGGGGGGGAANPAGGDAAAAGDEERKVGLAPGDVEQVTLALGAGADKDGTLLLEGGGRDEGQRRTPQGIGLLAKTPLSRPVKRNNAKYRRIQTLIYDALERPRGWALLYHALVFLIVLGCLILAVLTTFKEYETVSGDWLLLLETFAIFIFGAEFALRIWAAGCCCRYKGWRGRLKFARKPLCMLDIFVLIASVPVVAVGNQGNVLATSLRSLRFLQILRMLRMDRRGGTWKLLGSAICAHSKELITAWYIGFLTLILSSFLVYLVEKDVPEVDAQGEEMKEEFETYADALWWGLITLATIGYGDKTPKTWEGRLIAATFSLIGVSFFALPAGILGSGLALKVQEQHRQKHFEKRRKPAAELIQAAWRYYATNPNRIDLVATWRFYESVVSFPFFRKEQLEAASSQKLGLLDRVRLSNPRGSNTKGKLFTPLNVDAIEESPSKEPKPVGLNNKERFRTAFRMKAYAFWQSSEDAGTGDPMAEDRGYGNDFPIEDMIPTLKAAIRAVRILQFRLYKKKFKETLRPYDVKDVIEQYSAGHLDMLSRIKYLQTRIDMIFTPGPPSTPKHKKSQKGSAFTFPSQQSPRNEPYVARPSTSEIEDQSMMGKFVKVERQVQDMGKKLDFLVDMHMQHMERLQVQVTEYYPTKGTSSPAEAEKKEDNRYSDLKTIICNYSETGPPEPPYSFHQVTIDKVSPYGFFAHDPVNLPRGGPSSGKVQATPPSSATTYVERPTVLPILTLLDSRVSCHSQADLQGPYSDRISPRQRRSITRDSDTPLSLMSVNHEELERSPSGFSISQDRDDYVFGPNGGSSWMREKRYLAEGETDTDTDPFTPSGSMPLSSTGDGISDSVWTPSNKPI
# T1 sequence (O43526 whole entry): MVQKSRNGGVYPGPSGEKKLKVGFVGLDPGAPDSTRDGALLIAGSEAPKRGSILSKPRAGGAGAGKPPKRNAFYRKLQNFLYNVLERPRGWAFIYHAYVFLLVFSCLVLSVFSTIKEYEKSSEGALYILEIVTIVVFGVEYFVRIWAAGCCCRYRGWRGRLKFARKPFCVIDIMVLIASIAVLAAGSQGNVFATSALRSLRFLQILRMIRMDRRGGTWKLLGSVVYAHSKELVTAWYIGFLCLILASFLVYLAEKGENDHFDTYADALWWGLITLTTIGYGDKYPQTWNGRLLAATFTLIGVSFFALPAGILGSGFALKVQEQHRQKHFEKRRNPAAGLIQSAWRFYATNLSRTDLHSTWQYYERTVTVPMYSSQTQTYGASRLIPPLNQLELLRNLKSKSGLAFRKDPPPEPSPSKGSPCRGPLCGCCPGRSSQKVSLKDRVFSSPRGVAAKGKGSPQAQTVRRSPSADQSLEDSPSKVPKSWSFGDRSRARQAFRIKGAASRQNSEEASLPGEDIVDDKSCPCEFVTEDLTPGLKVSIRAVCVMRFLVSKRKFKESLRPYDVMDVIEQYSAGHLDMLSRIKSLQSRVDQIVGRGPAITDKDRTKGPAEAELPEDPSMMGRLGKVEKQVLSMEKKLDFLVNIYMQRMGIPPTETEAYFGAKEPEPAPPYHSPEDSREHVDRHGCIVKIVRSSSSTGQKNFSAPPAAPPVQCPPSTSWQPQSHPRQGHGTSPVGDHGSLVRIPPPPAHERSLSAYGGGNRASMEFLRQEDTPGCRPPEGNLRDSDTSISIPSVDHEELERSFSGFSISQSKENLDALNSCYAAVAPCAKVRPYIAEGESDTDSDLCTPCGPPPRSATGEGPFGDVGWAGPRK
# T2 sequence (Q8NER1 whole entry): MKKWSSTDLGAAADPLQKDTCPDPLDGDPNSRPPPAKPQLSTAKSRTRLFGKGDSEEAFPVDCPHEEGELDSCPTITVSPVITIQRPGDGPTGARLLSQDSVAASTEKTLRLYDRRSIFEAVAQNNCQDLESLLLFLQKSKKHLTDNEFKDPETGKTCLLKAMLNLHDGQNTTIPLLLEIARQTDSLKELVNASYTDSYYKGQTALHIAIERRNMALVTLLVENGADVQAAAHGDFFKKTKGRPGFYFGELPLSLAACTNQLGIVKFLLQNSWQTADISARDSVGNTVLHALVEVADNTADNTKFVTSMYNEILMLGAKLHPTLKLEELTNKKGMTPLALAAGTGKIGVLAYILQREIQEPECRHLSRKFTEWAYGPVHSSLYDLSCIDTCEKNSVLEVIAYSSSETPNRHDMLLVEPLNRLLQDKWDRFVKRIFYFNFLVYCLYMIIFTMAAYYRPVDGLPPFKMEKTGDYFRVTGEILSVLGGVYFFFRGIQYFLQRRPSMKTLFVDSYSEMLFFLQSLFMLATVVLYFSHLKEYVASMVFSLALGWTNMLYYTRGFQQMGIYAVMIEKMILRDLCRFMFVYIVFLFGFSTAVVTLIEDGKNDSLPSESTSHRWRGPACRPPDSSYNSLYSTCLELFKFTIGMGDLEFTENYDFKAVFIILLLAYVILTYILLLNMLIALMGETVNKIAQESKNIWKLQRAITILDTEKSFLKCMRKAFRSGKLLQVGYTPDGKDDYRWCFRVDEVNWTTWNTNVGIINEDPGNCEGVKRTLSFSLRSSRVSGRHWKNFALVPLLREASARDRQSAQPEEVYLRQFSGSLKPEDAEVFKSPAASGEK
# Chain of hERG (Q12809 whole entry): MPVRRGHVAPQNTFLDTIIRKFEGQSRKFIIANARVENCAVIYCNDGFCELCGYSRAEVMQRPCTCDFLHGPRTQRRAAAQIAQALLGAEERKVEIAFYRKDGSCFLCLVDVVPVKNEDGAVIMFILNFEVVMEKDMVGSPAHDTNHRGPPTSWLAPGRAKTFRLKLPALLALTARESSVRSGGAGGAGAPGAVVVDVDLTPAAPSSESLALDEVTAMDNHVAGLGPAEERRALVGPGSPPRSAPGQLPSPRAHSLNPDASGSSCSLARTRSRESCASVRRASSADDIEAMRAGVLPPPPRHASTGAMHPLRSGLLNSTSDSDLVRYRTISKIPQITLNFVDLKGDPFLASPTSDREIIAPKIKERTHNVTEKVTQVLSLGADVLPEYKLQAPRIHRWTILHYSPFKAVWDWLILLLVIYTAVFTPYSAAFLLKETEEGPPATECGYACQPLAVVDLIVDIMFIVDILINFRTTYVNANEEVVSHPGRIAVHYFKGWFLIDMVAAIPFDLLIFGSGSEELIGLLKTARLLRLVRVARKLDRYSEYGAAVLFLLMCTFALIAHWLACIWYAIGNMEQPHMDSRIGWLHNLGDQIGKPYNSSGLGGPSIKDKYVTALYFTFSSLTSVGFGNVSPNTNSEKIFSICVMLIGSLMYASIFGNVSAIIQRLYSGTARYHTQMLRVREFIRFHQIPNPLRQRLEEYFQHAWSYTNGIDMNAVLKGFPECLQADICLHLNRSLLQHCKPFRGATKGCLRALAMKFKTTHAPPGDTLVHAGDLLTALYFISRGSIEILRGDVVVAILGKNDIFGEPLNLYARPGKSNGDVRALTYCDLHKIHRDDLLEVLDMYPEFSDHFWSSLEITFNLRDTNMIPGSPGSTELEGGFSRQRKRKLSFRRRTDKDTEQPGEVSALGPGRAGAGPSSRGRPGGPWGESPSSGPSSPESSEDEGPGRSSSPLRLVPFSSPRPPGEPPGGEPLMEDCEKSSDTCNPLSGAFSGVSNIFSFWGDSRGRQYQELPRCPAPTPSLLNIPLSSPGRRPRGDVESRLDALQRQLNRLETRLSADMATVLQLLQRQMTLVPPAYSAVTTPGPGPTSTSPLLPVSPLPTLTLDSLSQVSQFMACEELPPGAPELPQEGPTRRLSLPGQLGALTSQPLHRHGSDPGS
SMILES,microsomal CLint at 1 µM [3] [µL/min/mg],EC50 [1] [µM],"IC50 [2, 7] [µM]",solubility kinetic [5] [µM],"logD [6, 8]",other results
"CC(C)c1cc(Cl)cc(Cl)c1C(O)c1ccc(F)c(CC(=O)NCC2(O)CCC2)c1 (single isomer, unassigned) [Compound 533p1]",,,,,,Kv7.2/3 activation (words) [1]: lower; Kv7.2/3 activation (words) ([1]; listed as 533P1): primarily activation of Kv7.2/3; TRPV1 modulation (words) [2]: inhibits hTRPV1; TRPV1 modulation (words) ([2]; listed as 533P1): TRPV1 inhibition
COC[C@@H](CO)NC(=O)Cc1cc(Sc2c(Cl)cc(Cl)cc2C(C)C)ccc1F [Compound 414],686,1.8,1.1,,,"IC50 [4]: > 2.5 µM; hERG IC50 (inhibition in parentheses) [4]: 0%; IC50 ([2]; Table 2, read-out: Experimental IC50): 1.1 µM"
CC(C)c1cc(Cl)cc(Cl)c1Sc1ccc(F)c(CC(=O)N[C@H]2C[C@H](O)C2)c1 [Compound 480],,,,,,IC50 [2]: 1.4 µM
Cc1cn(-c2ccc(F)c(CC(=O)NCCOCCOCC(C)(C)O)c2)c2c(Cl)cc(Cl)cc12 [Compound 541],,4.7,3.2,,,HLM Clint [3]: 772.2 µL/min/mg; Kinetic Sol. [5]: 2; logD [6]: 4.78
CC(C)c1cc(Cl)cc(Cl)c1C(=O)c1ccc(F)c(CC(=O)NCC2(O)CC2)c1 [Compound 573],441,7,3,24,4.34,
O=C(Cc1cncc(-n2cc(Cl)c3cc(Cl)cc(Cl)c32)c1)NCCO [Compound 649],27.3,5.2,3.3,10,4.19,

# More lines, main results first:
microsomal CLint at 1 µM [3] [µL/min/mg],EC50 [1] [µM],"IC50 [2, 7] [µM]",solubility kinetic [5] [µM],"logD [6, 8]",SMILES,other results
89.1,5.6,26.6,,,CC(C)c1cc(Cl)cc(Cl)c1C(O)c1ccc(F)c(CC(=O)NCC(C)(C)O)c1 (centres unmarked) [Compound 417],IC50 [4]: > 2.5 µM; hERG IC50 (inhibition in parentheses) [4]: 0%
,12,1,,,Cc1cn(-c2ccc(F)c(CC(=O)NCCO)c2)c2c(Cl)cc(Cl)cc12 [Compound 552],HLM Clint [3]: 27.2 µL/min/mg; Kinetic Sol. [5]: 5; logD [6]: 4.77
120,3,10,27,4.47,CC(C)c1cc(Cl)cc(Cl)c1C(=O)c1ccc(F)c(CC(=O)NCC2(O)CCC2)c1 [Compound 569],
38.1,8,,6,3.49,O=C(Cc1cncc(-n2cc(Cl)c3cc(Cl)cc(Cl)c32)c1)N[C@@H]1COC[C@@H]1O [Compound 662],TRPV1 IC50 ([2]; cells expressing TRPV1): agonist
53.6,5.9,,26,3.52,O=C(Cc1cncc(-n2cc(Cl)c3cc(Cl)cc(Cl)c32)c1)N[C@H]1COC[C@@H]1O [Compound 663],
